Laboratory results taken from patent US11439643B2, “Combination therapy using belinostat and pralatrexate to treat lymphoma” (Spectrum Pharmaceuticals, Inc., priority 2015, dated 2022).
Like-named read-outs stand apart in the source and are kept apart here.

Legend:
Assay type in all cases: cell-based
[1] = tested on: Jeko-1 [Mantle Cell Lymphoma (B cell origin)]; assay: CellTiter-Glo cell viability / growth inhibition, Jeko-1; conditions: Homo sapiens; Jeko-1, belinostat plus pralatrexate concurrently, 72 h; read-out: IC50 in combination studies
Protocol: (§1) The growth inhibitory effects of belinostat alone, and in combination with pralatrexate, was assayed in several different human lymphoma cell lines in vitro.
(§2) Serum used in this study is un-dialyzed fetal bovine serum (Atlanta Biologics) and contains<[…] of 5-methyltetrahydrofolate.
(§3) The cultures are maintained in T75-cm^2 culture flasks at 37° C., 95% air humidity, and 5% CO2. The cells are subcultured at 80-90% confluence and are seeded into 96-well plates at 1.5×10^4 cells per well for each experiment.
(§4) Cell Treatment: Treatment is initiated 24 hours after plating. […] Growth Inhibition Assay: Cell viability is determined using the CellTiter-Glo® Luminescent Cell Viability assay from Promega. The CellTiter-Glo® assay is a homogeneous method to determine and compare cell viability using ATP utilization. Following treatment, 100 μl of growth medium is removed and cells are incubated with 100 μl CellTiter-Glo® reagent for two minutes with nutation and incubated at room temperature for ten additional minutes to stabilize the luminescence signal; luminescence is then measured using a Biotek luminometer with values reported in (Lum).
(§5) Data analysis: Cell viability in each assay is expressed as a percentage versus untreated control cells.

[2] = tested on: panel of lymphoma cell lines; assay: CellTiter-Glo cell viability, panel of lymphoma cell lines; conditions: Homo sapiens; single agent, 72 hr exposure, range over cell lines; read-out: Single agent IC50 values across a panel of lymphoma cell lines
Protocol: as §1, §2, §3
Cell Treatment: Treatment is initiated 24 hours after plating.
Growth Inhibition Assay: Cell viability is determined using the CellTiter-Glo® Luminescent Cell Viability assay from Promega. The CellTiter-Glo® assay is a homogeneous method to determine and compare cell viability using ATP utilization. Following treatment, 100 μl of growth medium is removed and cells are incubated with 100 μl CellTiter-Glo® reagent for two minutes with nutation and incubated at room temperature for ten additional minutes to stabilize the luminescence signal; luminescence is then measured using a Biotek luminometer with values reported in (Lum).
as §5

[3] = tested on: HUT-78 [Cutaneous T lymphocyte (T cell origin)]; assay: CellTiter-Glo cell viability / growth inhibition, HUT-78; conditions: Homo sapiens, HuT78
Protocol: as §1, §2, §3, §4, §5

[4] = tested on: KARPAS-299 [Human Non-Hodgkin's Ki-positive Large Cell Lymphoma (T cell origin)]; assay: CellTiter-Glo cell viability / growth inhibition, KARPAS-299
Protocol: as §1, §2, §3, §4, §5

[5] = HUT-78, belinostat plus pralatrexate concurrently, 72 h, read-out: IC50 in combination studies
[6] = HUT-78, single agent, 72 hr exposure, read-out: Single Agent IC50
[7] = KARPAS-299, belinostat plus pralatrexate concurrently, 72 h, read-out: IC50 in combination studies

| IC50 [1] | IC50 [2] | IC50 [4, 7] | IC50 ([4]; KARPAS-299, single agent, 72 hr exposure, read-out: Single Agent IC50) | Structure (SMILES) | IC50 [3, 5] | IC50 [3, 6] |
| --- | --- | --- | --- | --- | --- | --- |
| 0.0021 µM | 0.002 to 0.025 µM | 0.0036 µM | 0.024 µM | C#CCC(Cc1cnc2nc(N)nc(N)c2n1)c1ccc(C(=O)N[C@@H](CCC(=O)O)C(=O)O)cc1 (mixture of isomers) [Pralatrexate, (2S)-2-[[4-[(1RS)-1-[(2,4-diaminopteridin-6-yl)methyl]but-3ynyl]benzoyl]amino]pentanedioic acid] | 0.0041 µM | 0.0028 µM |
| 0.087 µM | 0.09 to 0.21 µM | 0.127 µM |  | O=C(/C=C/c1cccc(S(=O)(=O)Nc2ccccc2)c1)NO [Belinostat, (2E)-N-hydroxy-3-[3-(phenylsulfamoyl)phenyl]prop-2-enamide] | 0.17 µM | 0.097 µM |
